Laboratory results from PubChem BioAssay (NCI).
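Each compound was tested at five concentrations against cells in 96-well plates for 48 hours. TGI: concentration producing complete growth inhibition.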

Columns and labels:
Assay in all cases: NCI tumour cell line growth inhibition, 48 h
UACC-257 melanoma = tested on: UACC-257 melanoma
OVCAR-4 ovarian = tested on: OVCAR-4 ovarian
HCT-15 colon = tested on: HCT-15 colon
OVCAR-5 ovarian = tested on: OVCAR-5 ovarian
HOP-92 NSCLC = tested on: HOP-92 NSCLC
HL-60(TB) leukemia = tested on: HL-60(TB) leukemia
HCC-2998 colon = tested on: HCC-2998 colon
SW-620 colon = tested on: SW-620 colon
ACHN renal = tested on: ACHN renal
U251 CNS = tested on: U251 CNS
SK-MEL-28 melanoma = tested on: SK-MEL-28 melanoma
CAKI-1 renal = tested on: CAKI-1 renal
M19-MEL melanoma = tested on: M19-MEL melanoma
MOLT-4 leukemia = tested on: MOLT-4 leukemia
SR leukemia = tested on: SR leukemia
SF-295 CNS = tested on: SF-295 CNS
SNB-78 CNS = tested on: SNB-78 CNS
SF-539 CNS = tested on: SF-539 CNS
KM12 colon = tested on: KM12 colon
SK-MEL-2 melanoma = tested on: SK-MEL-2 melanoma
DLD-1 colon = tested on: DLD-1 colon
A549 NSCLC = tested on: A549 NSCLC
OVCAR-8 ovarian = tested on: OVCAR-8 ovarian
KM20L2 colon = tested on: KM20L2 colon
EKVX NSCLC = tested on: EKVX NSCLC
LOX IMVI melanoma = tested on: LOX IMVI melanoma
NCI-H23 lung = tested on: NCI-H23 lung
RPMI-8226 leukemia = tested on: RPMI-8226 leukemia
M14 melanoma = tested on: M14 melanoma
HCT-116 colon = tested on: HCT-116 colon
NCI-H460 lung = tested on: NCI-H460 lung
UACC-62 melanoma = tested on: UACC-62 melanoma
RXF-631 renal = tested on: RXF-631 renal
OVCAR-3 ovarian = tested on: OVCAR-3 ovarian
LXFL 529 NSCLC = tested on: LXFL 529 NSCLC
CCRF-CEM leukemia = tested on: CCRF-CEM leukemia
SNB-19 CNS = tested on: SNB-19 CNS
DMS 114 small cell lung = tested on: DMS 114 small cell lung
MALME-3M melanoma = tested on: MALME-3M melanoma
RXF 393 renal = tested on: RXF 393 renal
UO-31 renal = tested on: UO-31 renal
XF 498 CNS = tested on: XF 498 CNS
COLO 205 colon = tested on: COLO 205 colon
NCI-H522 lung = tested on: NCI-H522 lung
IGROV1 ovarian = tested on: IGROV1 ovarian
SF-268 CNS = tested on: SF-268 CNS
A498 renal = tested on: A498 renal
DMS 273 small cell lung = tested on: DMS 273 small cell lung
HOP-62 NSCLC = tested on: HOP-62 NSCLC
SNB-75 CNS = tested on: SNB-75 CNS
K-562 leukemia = tested on: K-562 leukemia
TK-10 renal = tested on: TK-10 renal
HT29 colon = tested on: HT29 colon
SK-OV-3 ovarian = tested on: SK-OV-3 ovarian
SN12C renal = tested on: SN12C renal
786-0 renal = tested on: 786-0 renal
SK-MEL-5 melanoma = tested on: SK-MEL-5 melanoma
NCI-H226 lung = tested on: NCI-H226 lung
HOP-18 NSCLC = tested on: HOP-18 NSCLC

## NCCOc1ccc(/C(=C(/Cl)c2ccccc2)c2ccccc2)cc1
UACC-257 melanoma
  TGI: 24.8 µM
OVCAR-4 ovarian
  TGI: 28.7 µM
HCT-15 colon
  TGI: 19.1 µM
OVCAR-5 ovarian
  TGI: 30.8 µM
HOP-92 NSCLC
  TGI: 16.8 µM
HL-60(TB) leukemia
  TGI: 7.61 µM
HCC-2998 colon
  TGI: 14.8 µM
SW-620 colon
  TGI: 16.1 µM
ACHN renal
  TGI: 27.2 µM
U251 CNS
  TGI: 23.7 µM
SK-MEL-28 melanoma
  TGI: 18.6 µM
CAKI-1 renal
  TGI: 23.2 µM
M19-MEL melanoma
  TGI: 23.8 µM
MOLT-4 leukemia
  TGI: 14.7 µM
SR leukemia
  TGI: 12.1 µM
SF-295 CNS
  TGI: 28.9 µM
SNB-78 CNS
  TGI: 25 µM
SF-539 CNS
  TGI: 28.9 µM
KM12 colon
  TGI: 16.7 µM
SK-MEL-2 melanoma
  TGI: 29.1 µM
DLD-1 colon
  TGI: 33.3 µM
A549 NSCLC
  TGI: 31.5 µM
OVCAR-8 ovarian
  TGI: 29.6 µM
KM20L2 colon
  TGI: 19.9 µM
EKVX NSCLC
  TGI: 30.1 µM
LOX IMVI melanoma
  TGI: 16.6 µM
NCI-H23 lung
  TGI: 30.7 µM
RPMI-8226 leukemia
  TGI: 11 µM
M14 melanoma
  TGI: 5.29 µM
HCT-116 colon
  TGI: 20.2 µM
NCI-H460 lung
  TGI: 21.6 µM
UACC-62 melanoma
  TGI: 25.3 µM
RXF-631 renal
  TGI: 26.3 µM
OVCAR-3 ovarian
  TGI: 26.2 µM
LXFL 529 NSCLC
  TGI: 20 µM
CCRF-CEM leukemia
  TGI: 24.6 µM
SNB-19 CNS
  TGI: 28.9 µM
DMS 114 small cell lung
  TGI: 27.1 µM
MALME-3M melanoma
  TGI: 24.3 µM
RXF 393 renal
  TGI: 13.8 µM
UO-31 renal
  TGI: 21.4 µM
XF 498 CNS
  TGI: 17.6 µM
COLO 205 colon
  TGI: 3.59 µM
NCI-H522 lung
  TGI: 26.4 µM
IGROV1 ovarian
  TGI: 29.9 µM
SF-268 CNS
  TGI: 29.8 µM
A498 renal
  TGI: 34.1 µM
DMS 273 small cell lung
  TGI: 25.5 µM
HOP-62 NSCLC
  TGI: 32.7 µM
SNB-75 CNS
  TGI: 24.1 µM
K-562 leukemia
  TGI: 14.8 µM
TK-10 renal
  TGI: 26.2 µM
HT29 colon
  TGI: 7.81 µM
SK-OV-3 ovarian
  TGI: 31.7 µM
SN12C renal
  TGI: 24 µM
786-0 renal
  TGI: 20.7 µM
SK-MEL-5 melanoma
  TGI: 22.3 µM
NCI-H226 lung
  TGI: 36.7 µM

## CCCCCCCCSC(=O)NCCCC
OVCAR-4 ovarian
  TGI: > 100 µM
HCT-15 colon
  TGI: 96.8 µM
OVCAR-5 ovarian
  TGI: > 100 µM
HOP-92 NSCLC
  TGI: 53.9 µM
HL-60(TB) leukemia
  TGI: 41.3 µM
SW-620 colon
  TGI: > 100 µM
ACHN renal
  TGI: > 100 µM
U251 CNS
  TGI: > 100 µM
SK-MEL-28 melanoma
  TGI: 88.7 µM
CAKI-1 renal
  TGI: > 100 µM
M19-MEL melanoma
  TGI: > 100 µM
MOLT-4 leukemia
  TGI: 87 µM
SF-295 CNS
  TGI: > 100 µM
SF-539 CNS
  TGI: > 100 µM
KM12 colon
  TGI: > 100 µM
SK-MEL-2 melanoma
  TGI: 45.6 µM
DLD-1 colon
  TGI: > 100 µM
A549 NSCLC
  TGI: > 100 µM
OVCAR-8 ovarian
  TGI: > 100 µM
KM20L2 colon
  TGI: 62.5 µM
EKVX NSCLC
  TGI: 75.4 µM
LOX IMVI melanoma
  TGI: 40.2 µM
NCI-H23 lung
  TGI: > 100 µM
RPMI-8226 leukemia
  TGI: 57.9 µM
M14 melanoma
  TGI: 79 µM
NCI-H460 lung
  TGI: > 100 µM
UACC-62 melanoma
  TGI: > 100 µM
RXF-631 renal
  TGI: > 100 µM
OVCAR-3 ovarian
  TGI: > 100 µM
HOP-18 NSCLC
  TGI: > 100 µM
LXFL 529 NSCLC
  TGI: > 100 µM
CCRF-CEM leukemia
  TGI: > 100 µM
SNB-19 CNS
  TGI: > 100 µM
MALME-3M melanoma
  TGI: 68.5 µM
RXF 393 renal
  TGI: 69.3 µM
UO-31 renal
  TGI: 51.6 µM
XF 498 CNS
  TGI: 47.2 µM
COLO 205 colon
  TGI: > 100 µM
NCI-H522 lung
  TGI: 80.4 µM
IGROV1 ovarian
  TGI: > 100 µM
SF-268 CNS
  TGI: > 100 µM
A498 renal
  TGI: > 100 µM
DMS 273 small cell lung
  TGI: > 100 µM
SNB-75 CNS
  TGI: 84.7 µM
K-562 leukemia
  TGI: > 100 µM
TK-10 renal
  TGI: > 100 µM
HT29 colon
  TGI: 66.6 µM
SK-OV-3 ovarian
  TGI: > 100 µM
SN12C renal
  TGI: > 100 µM
786-0 renal
  TGI: > 100 µM
SK-MEL-5 melanoma
  TGI: 46.6 µM

## CC12Nc3ccccc3C1=C(c1ccccc1)CC1C(=O)OC(=O)C12 (configuration not stated)
UACC-257 melanoma
  TGI: > 100 µM
OVCAR-4 ovarian
  TGI: > 100 µM
HCT-15 colon
  TGI: > 100 µM
OVCAR-5 ovarian
  TGI: > 100 µM
HOP-92 NSCLC
  TGI: > 100 µM
HL-60(TB) leukemia
  TGI: > 100 µM
HCC-2998 colon
  TGI: > 100 µM
SW-620 colon
  TGI: > 100 µM
ACHN renal
  TGI: > 100 µM
U251 CNS
  TGI: > 100 µM
SK-MEL-28 melanoma
  TGI: > 100 µM
M19-MEL melanoma
  TGI: > 100 µM
MOLT-4 leukemia
  TGI: > 100 µM
SF-295 CNS
  TGI: > 100 µM
SNB-78 CNS
  TGI: > 100 µM
SF-539 CNS
  TGI: > 100 µM
KM12 colon
  TGI: > 100 µM
SK-MEL-2 melanoma
  TGI: > 100 µM
DLD-1 colon
  TGI: > 100 µM
A549 NSCLC
  TGI: > 100 µM
OVCAR-8 ovarian
  TGI: > 100 µM
KM20L2 colon
  TGI: > 100 µM
EKVX NSCLC
  TGI: > 100 µM
LOX IMVI melanoma
  TGI: > 100 µM
NCI-H23 lung
  TGI: > 100 µM
RPMI-8226 leukemia
  TGI: > 100 µM
M14 melanoma
  TGI: > 100 µM
HCT-116 colon
  TGI: > 100 µM
NCI-H460 lung
  TGI: > 100 µM
UACC-62 melanoma
  TGI: > 100 µM
RXF-631 renal
  TGI: > 100 µM
OVCAR-3 ovarian
  TGI: > 100 µM
LXFL 529 NSCLC
  TGI: > 100 µM
CCRF-CEM leukemia
  TGI: > 100 µM
SNB-19 CNS
  TGI: > 100 µM
DMS 114 small cell lung
  TGI: > 100 µM
MALME-3M melanoma
  TGI: > 100 µM
RXF 393 renal
  TGI: > 100 µM
UO-31 renal
  TGI: > 100 µM
XF 498 CNS
  TGI: > 100 µM
COLO 205 colon
  TGI: > 100 µM
NCI-H522 lung
  TGI: > 100 µM
IGROV1 ovarian
  TGI: > 100 µM
SF-268 CNS
  TGI: > 100 µM
DMS 273 small cell lung
  TGI: > 100 µM
HOP-62 NSCLC
  TGI: > 100 µM
SNB-75 CNS
  TGI: 73.7 µM
K-562 leukemia
  TGI: > 100 µM
TK-10 renal
  TGI: > 100 µM
HT29 colon
  TGI: > 100 µM
SN12C renal
  TGI: > 100 µM
786-0 renal
  TGI: > 100 µM
SK-MEL-5 melanoma
  TGI: > 100 µM
